Activity calls are given as the source filed them. No cut-off for these calls is given here.
Assays:
RAW264.7 [1] = assay: Antiinflammatory activity in mouse RAW264.7 cells assessed as inhibition of LPS-induced NO production at 3 to 30 ug/ml after 24 hrs by Griess reaction; format: functional
RAW264.7 [2] = assay: Antiinflammatory activity in mouse RAW264.7 cells assessed as inhibition of LPS-induced NO production at 30 ug/ml after 24 hrs by Griess reaction; format: functional, cell-based
RAW264.7 [3] = assay: (§1) Cytotoxicity against mouse RAW264.7 cells assessed as cell viability at 3 to 30 ug/ml after 24 hrs by MTT assay; format: cell-based; settings: raw264.7, 24 h
RAW264.7 [4] = assay: Antiinflammatory activity in mouse RAW264.7 cells assessed as inhibition of LPS-induced iNOS expression after 18 hrs by Western blot analysis; format: functional, cell-based
RAW264.7 [5] = assay: Antiinflammatory activity in mouse RAW264.7 cells assessed as inhibition of LPS-induced COX2 expression at 3 to 30 ug/ml after 18 hrs by Western blot analysis; format: functional, cell-based
[6] = as §1; format: cell-based; settings: RAW264.7 cells, read-out: Activity

Row | Structure (SMILES) | inhibition (RAW264.7 [1]) | inhibition (RAW264.7 [2]) | other results
1 | COc1cc(C(O)CCO)cc2cc(-c3ccc4c(c3)OCO4)oc12 (centres undefined) | inactive | – | –
2 | COc1ccc(-c2cc3cc([C@@H](O)CCO)cc(OC)c3o2)cc1OC | – | inactive | Activity (RAW264.7 [3]): Non-toxic; inhibition (RAW264.7 [4]): Dose-dependent effect; inhibition (RAW264.7 [5]): Active
3 | COc1cc(CCCO)cc2cc(-c3ccc4c(c3)OCO4)oc12 | inactive | – | –
4 | COc1cc([C@H]2OC[C@H]3[C@@H]2CO[C@H]3c2ccc(O)c(OC)c2)ccc1O (stereo in doubt; 12) | inactive | – | –
5 | COc1cc([C@@H]2OCC3C(=O)OCC32)ccc1O (some centres undefined) | – | inactive | viability at 24 h [6]: 60%
6 | COc1cc(C[C@H]2CO[C@H](c3ccc(O)c(OC)c3)[C@H]2CO)ccc1O | inactive | – | –
7 | COc1ccc(-c2cc3cc(CCCO)cc(OC)c3o2)cc1OC | – | inactive | –
8 | COc1cc([C@H]2OC[C@H]3[C@@H]2CO[C@@H]3c2cc(OC)c(O)c(OC)c2)cc(OC)c1O | inactive | – | –
9 | COc1cc(-c2oc3c(OC)cc(CCCO)cc3c2C=O)ccc1O | inactive | – | –
10 | COc1cc([C@H]2OC[C@H]3[C@@H]2CO[C@H]3c2ccc(O)c(OC)c2)ccc1O (stereo in doubt; 11) | inactive | – | –
